Measured values published in patent publication US5889147A (University of Utah Research Foundation, priority 1997, dated 1999).
“Also recorded” adds a separate entry of the source. Positions of bridges follow the written chain, without caps; N, C: chain ends. Non-standard residues stand in square brackets, D forms with d. Residues, ends and D or L forms follow the SMILES beside them. Trp(6-Br) = N[C@@H](Cc1c[nH]c2cc(Br)ccc12)C(=O)O; Hyp = O=C(O)[C@@H]1C[C@@H](O)CN1

Key:
[1] = tested on: Frings audiogenic seizure susceptible mice; conditions: mouse, in vivo
mice [2] = conditions: mouse
CF No. 1 mice = conditions: mouse, in vivo, sc
mice [3] = conditions: mouse, in vivo
serotonin 5HT3 receptor = biological target: T1, serotonin 5HT3 receptor (Homo sapiens, UniProt P46098)
T1 sequence (P46098 24-478): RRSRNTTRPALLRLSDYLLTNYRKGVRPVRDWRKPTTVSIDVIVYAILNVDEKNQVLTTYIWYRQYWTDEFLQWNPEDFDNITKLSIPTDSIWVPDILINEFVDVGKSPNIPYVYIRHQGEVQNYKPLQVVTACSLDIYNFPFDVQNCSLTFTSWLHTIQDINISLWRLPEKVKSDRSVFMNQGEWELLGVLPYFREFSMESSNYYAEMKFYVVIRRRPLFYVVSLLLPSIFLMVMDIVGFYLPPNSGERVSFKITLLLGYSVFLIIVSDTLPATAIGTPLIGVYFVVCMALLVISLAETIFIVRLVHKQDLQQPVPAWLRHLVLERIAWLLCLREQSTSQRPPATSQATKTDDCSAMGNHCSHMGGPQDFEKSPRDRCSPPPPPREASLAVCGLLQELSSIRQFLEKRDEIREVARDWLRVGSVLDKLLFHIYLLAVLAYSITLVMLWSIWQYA

Q: For “Xaa1 -Ala-Thr-Ile-Asp-Xaa2 -Cys-Xaa2-Xaa2 -Thr-Cys-Asn-Val-Thr-Phe-Lys-Thr-Cys-Cys-Gly-Xaa3-Xaa3-Gly-Asp-Trp-Gln-Cys-Val-Xaa2-Ala-Cys-Pro-Val-OH, where Xaa3 =hydroxyproline, Xaa2 =Gla and Xaa1 =bromotryptophan [Bromosleeper Peptide]”, which anticonvulsant activity [1] is on record?
A: seen to have activity in this model

Q: And the “in vivo effect in very young (<2 weeks old) and older (>3 weeks old) mice” value (mice [2])?
A: induced sleep in mice of both age groups

Q: And the “Observed Effects in Mice: lethargic/drowsy after (onset time)” value (mice [2]; in vivo)?
A: ≈ 15 min; also recorded: ≈ 19 min; also recorded: ≈ 11 min

Q: And the “dependence of potency on the age of the mice” value (mice [2]; in vivo)?
A: more potent in 9-day-old mice than in the older mice

Q: What about the anticonvulsant activity (CF No. 1 mice) of the same compound?
A: found to have anticonvulsant activity

Q: Which “biological activity in mammalian systems, compared with contryphan R and des[Gly1]contryphan R” value (mice [3]) does the source give for NCC(=O)N[C@H]1CSSC[C@@H](C(N)=O)NC(=O)[C@H](Cc2c[nH]c3cc(Br)ccc23)NC(=O)[C@@H]2CCCN2C(=O)[C@H](CCC(=O)O)NC(=O)[C@@H](Cc2c[nH]c3ccccc23)NC(=O)[C@@H]2C[C@@H](O)CN2C1=O [bromocontryphan, GCX1 X2 EPX5 C--NH2, X1 is Hyp, X2 is D-Trp and X5 is 6-bromo-L-Trp] (H-GC[Hyp][dW]EP[Trp(6-Br)]C-NH2; disulfide 2-8) here?
A: very similar to the spectrum of activity previously observed for both contryphan R and des[Gly^1 ]contryphan R

Q: For “Gly-Cys-Thr-Arg-Thr-Cys-Gly-Gly-Xaa1 -Lys-Cys-Thr-Gly-Thr-Cys-Thr-Cys-Thr-Asn-Ser-Ser-Lys-Cys-Gly-Cys-Arg-Tyr-Asn-Val-His-Pro-Ser-Gly-Xaa2 -Gly-Cys-Gly-Cys-Ala-Cys-Ser, where Xaa1 is Hyp and Xaa2 is 6-bromo-L-tryptophan [sigma conotoxin]”, which receptor targeted (serotonin 5HT3 receptor) is on record?
A: targets the serotonin 5HT3 receptor
